Results: patent US9751932B2, “Anti-big-endothelin-1 (big-ET-1) antibodies and uses thereof” (Regeneron Pharmaceuticals, Inc., priority 2012, dated 2017)
Entries after “also recorded” stand apart in the source; their conditions may differ.

Experiments:
Format in all cases: in vivo, mouse
[1] = test system: hypoxia-induced pulmonary hypertension in C57BL/6 male mice; test: Blocking/prevention of hypoxia-induced pulmonary hypertension (dosing prior to and during hypoxia); conditions: 18th day of hypoxia
Procedure: Ultrasound measurements were acquired using the following protocol. Mice were anesthetized, placed in a supine position on a heated platform (THM 100, Indus Instruments) and 2D imaging of the pulmonary infundibulum (B- and M-mode) was carried out using a Vevo 2100 ultrasound system (VisualSonics). Images were obtained from the parasternal short-axis view at the level of the aortic valve. Pulsed-wave Doppler measurements were obtained at the tip of the pulmonary valve leaflets once the scanhead was aligned for maximal laminar flow. In addition, M-mode recordings of the right ventricle were acquired at the short axis B-mode imaging plane to obtain right ventricular free-wall dynamics through the cardiac cycle.
Ultrasound data analysis, performed in a blinded manner, analyzed the following parameters: Diastolic and systolic right ventricular free-wall thickness (RVFW, short axis M-mode), pulmonary artery diameter at end-systole (short axis B-mode), and pulmonary artery flow (PA flow, PW Doppler). From these measurements, time-velocity integral of pulmonary flow, pulmonary artery cross-sectional area (PA CSA), and right ventricle cardiac output (RV CO) were calculated. Means and standard errors of the mean were calculated for measurements at each time point, for each treatment group. All measurements were averaged on 3 cardiac cycles. Right ventricular pressures at 21 days of hypoxia were recorded using the following protocol: Mice were anesthetized, placed in the supine position on a heated platform (Water-jacketed pad heated with a Gaymar heating pump) and an incision over the right common carotid artery and right jugular vein was made isolating the right jugular taking care not to damage the carotid artery and/or the Vagus nerve. […]
Right ventricular systolic pressure analysis was conducted using LabChart Pro software (ADInstruments) at approximately 60 second intervals of pressure tracing (following a 2 minute period of recording to allow for pressure stabilization). The parameters analyzed were RV diastolic and systolic pressures, heart rate and animal temperature. […]

[2] = test system: bleomycin-induced pulmonary fibrosis in C57BL/6 male mice
Procedure: Bleomycin-induced lung injury was used to model pulmonary fibrosis in 10-week-old C57BL/6 male mice. Bleomycin sulfate was administered via a single oropharyngeal dose (3.2 U/kg (2.0 mg/kg) in a 2.0 ml/kg volume). Untreated control mice received a transoral instillation of sterile 0.9% saline (2.0 ml/kg). Bosentan, an orally active non-selective antagonist of endothelin receptor-A and -B, was used as a positive control for treatment, while vehicle and an irrelevant isotype matched antibody served as negative controls. Mice were allocated to treatment or control groups with dosing regimens as outlined in Table 11.
Each cage was randomly assigned to a therapeutic treatment group so all mice in the cage received the same treatment. Initial average body weight for each treatment group was similar. Daily body weights were recorded throughout the study. Group body weight average and percent change were analyzed and graphed.
Administration of bleomycin or saline was performed while animals were under anesthesia (isoflurane at a 3.5% to 2-liters/min oxygen flow rate). Sedated mice were placed on a 60-degree tilt board, head up with an elastic band around the incisors. A small cotton tip was used to roll tongue out of the mouth then forceps were used to hold tongue and to open the jaw. During a heavy inhalation, fluid was pipetted into the mouth. Tongue and jaw positions were maintained while mouse remained on the tilt board. Approximately 20 seconds elapsed after pipetting for fluid to disappear and “wheezing” to stop. After treatment instillation, mice were group-housed by treatment conditions (5 animals per cage) in disposable cages for 7 days because of excreted biohazard and then returned to home cages. Disposable cages differed from home cages only by use of a cage top bottle for water instead of use of Thoren rack watering system. All mice were housed in colony on 12 hr (7 am-7 pm) light-dark cycle.
Bosentan was administered by oral gavage twice daily (9:30 am and 6:30 pm) during the week. The initial pretreatment dose and weekend day doses were administered as a single combined BID. As outlined in Table 11, Bosentan dosing continued daily through day 20 of study while antibodies and vehicle were subcutaneously dosed every 3 days through day 18.
Pulmonary function was gauged by measuring arterial oxygen saturation using the Starr Life Sciences, MouseOx small animal vital signs monitor. Measurements were taken around the neck region following hair removal on Days 14 and 17. The MouseOx can monitor the cardio-pulmonary health and degree of lung injury by measuring the level of oxygen carried to the tissues on hemoglobin molecules in red blood cells. A throat collar sensor was used to measure arterial oxygen saturation via the carotid artery in conscious mice. Mice were lightly restrained by hand to confine subject to the cage top food hopper and to reduce movement. […] Once a continuous 15 second block is recorded, the software calculates the average of the above parameters. […] An average arterial oxygen saturation for each treatment group was calculated and analyzed using one-way ANOVA with Bonferroni post-test comparisons of all treatment groups.
On Day 21, mice were administered a terminal dose of Ketamine/Xylazine (120 mg/kg/5 mg/kg IP, respectively). […] Wet and dry lung weights and wet wt. to dry wt. ratios were calculated for each treatment group. […]

[3] = test system: hypoxia-induced pulmonary hypertension in C57BL/6 male mice; test: Treatment of hypoxia-induced pulmonary hypertension (dosing from Day 14 of hypoxia); conditions: dosing Days 14-21 of hypoxia; for Pulmonary Artery Cross-Sectional Area (PA CSA) / Right Ventricular Free Wall (RVFW) Thickening: 21st day; for Pulmonary Artery Cross-Sectional Area (PA CSA): FIG. 6; for Right Ventricular Free Wall (RVFW) Thickening: FIG. 7
Procedure: In this Example, the ability of anti-big-ET-1 antibody […] to treat hypoxia-induced pulmonary hypertension in mouse was evaluated. Experimental group animals were subjected to hypoxic conditions for 21 days (Day 1-21) and dosed with […], Bosentan, or control isotype antibody starting on Day 14. At Day 21, animals were evaluated using ultrasound images and measurements of ventricular pressures and cardiac hypertrophy (see Evaluation Materials and Methods in Example 7) and compared to control animals (maintained under normoxic conditions, hypoxia for 14 days, or hypoxia for 14 days followed by normoxia for 7 days). […] C57BL/6 male mice (10-11 weeks old) were weighed and treated or treated and dosed over a course of 21 days as outlined in Table 10. Bosentan was administered orally (PO); anti-big-ET-1 antibody […] and isotype control antibody were administered subcutaneously (SC). Body weights were consistent between groups over the course of this study. Bosentan, an orally active non-selective antagonist of endothelin receptor-A and -B, was used as a positive control while an irrelevant isotype-matched antibody served as the negative control. All procedures were approved by the Regeneron Institutional Animal Care and Use Committee (IACUC). Non-invasive ultrasound scanning was performed to determine pulmonary artery cross-sectional area (PA CSA), right ventricle cardiac output (RV CO) and right ventricular free wall thickness (RVFW) on the 21st day of hypoxia. Right ventricular diastolic and systolic pressures were acquired using a high-fidelity pressure catheter (Mikro-Tip®, Millar Instruments) in the right ventricle; in addition, right ventricular hypertrophy measurements (i.e., weight ratio of right ventricle-to-left ventricle+septum; Fulton Index) were measured at 21 days of hypoxia.

[4] = test system: bleomycin-induced pulmonary fibrosis in C57BL/6 male mice; conditions: 20 days post bleomycin; vs vehicle or isotype control

With `COc1ccccc1Oc1c(NS(=O)(=O)c2ccc(C(C)(C)C)cc2)nc(-c2ncccn2)nc1OCCO` [Bosentan, reference compound] the “Pulmonary Artery Cross-Sectional Area (PA CSA)” value ([1]; H4H6327P2 25 mg/kg SC every 3 days, Bosentan 300 mg/kg PO SID, FIG. 1) was “showed a similar yet reduced capacity to maintain basal PA CSA; also recorded: significantly lessen the reduction in PA CSA”, the “Right Ventricular Cardiac Output (RV CO)” value ([1]; preventive dosing, FIG. 2) was “showed a greater preservation of RV CO compared to the vehicle-treated group” and the “Right Ventricular Free Wall Thickness, systole (RVFW,s)” value ([1]; preventive dosing, FIG. 4) was “tends to reduce (not significant) the thickening of the RVFW”. For the same molecule, the “lung wet weights (in words)” value ([2]; 21 days post bleomycin, vs isotype control) was “showed statistically significant reductions in wet lung weights”, the “Wet Weight Rt. Lung (mg) AVG ± SEM” value ([2]; bleomycin 3.2 U/kg, 21 days post bleomycin) was 117 ± 6 mg and the “% Arterial Blood 02 Saturation AVG ± SEM” value ([2]; bleomycin 3.2 U/kg, MouseOx throat collar sensor) was 93 ± 1%. The “Total Collagen Rt. Lung (ug) AVG ± SEM” value ([2]; bleomycin 3.2 U/kg, Sircol soluble collagen, Day 21) was 403 ± 38 µg, the “collagen accumulation in the lung (in words)” value ([2]; post bleomycin exposure) was “reduced collagen accumulation in the lung” and the “Pulmonary Artery Cross-Sectional Area (PA CSA)” value [3] was “significantly reverse the reduction in pulmonary artery cross-sectional area”. The “Pulmonary Artery Cross-Sectional Area (PA CSA)” value ([3]; listed as bosentan) was “lessened lumen diameter loss”, the “Right Ventricular Free Wall (RVFW) Thickening” value [3] was “significantly reverse right ventricular free wall (RVFW) thickening” and the “Right Ventricular Free Wall (RVFW) Thickening” value ([3]; listed as bosentan) was “attenuated right ventricular free wall (RVFW) thickening”. For the same molecule, the “Distal Pulmonary Arteriole Wall Thickening” value ([3]; FIG. 5) was “significantly reverses distal pulmonary arteriole wall thickening”, the “Right Ventricular Cardiac Output (RV CO)” value ([3]; FIG. 9) was “Greater preservation of RV CO in bosentan-treated vs antibody-treated animals” and the “Right Ventricular Systolic Pressure (RVSP)” value ([3]; FIG. 10) was “tends to reduce the RVSP”. The “arterial blood oxygen saturation (in words)” value [4] was “tended to restore arterial blood oxygen saturation closer to baseline levels”.
